# Results reported in article PMC10817945, “Design of a novel analogue peptide with potent antibiofilm activities against Staphylococcus aureus based upon a sapecin B-derived peptide” (Scientific Reports, 2024).
# Like-named read-outs stand apart in the source and are kept apart here. Non-standard residues stand in square brackets, D forms with d. Residues, ends and D or L forms follow the SMILES beside them.
# Tests used:
# Format in all cases: cell-based, Staphylococcus aureus
# S. aureus isolates [1] = test system: S. aureus isolates
# Protocol: (§1) Minimum inhibitory concentrations (MIC) of KLK, mKLK, and vancomycin were determined using microdilution broth assay according to clinical and laboratory standards institute (CLSI) guidelines with some modifications. Briefly, overnight cultures were diluted in Muller-Hinton broth (MHB; Merck, Germany) to achieve a final density of 5 × 10^5 CFU/ml. A volume of 100 μl of bacterial suspension was added to wells of sterile 96-well plates containing 100 μl of two-fold peptide dilutions, ranging from 0.25 to 256 µg/ml. Vancomycin was used as a positive control in this assay. […] MBC was determined by removing samples from wells with no visible growth, serially diluting, and plating on Mueller Hinton (MH) agar plates for CFU counting.
# 24-h S. aureus biofilms = assay: Biofilm dispersal activity (crystal violet)
# Protocol: To investigate the dispersal activity of KLK and mKLK peptide, the 24-h S. aureus biofilms were prepared in TSB medium in the 96-well plates. Then, the final concentrations of 1×, 2×, and 4 × MIC were prepared for each peptide in the wells. After incubation at 37 °C for 12 h, plates were washed with PBS three times to discard unattached bacteria. Subsequently, plates were stained with 250 μl of 0.5% crystal violet for 20 min at room temperature. Then, the wells were washed and 250 μl 33% acetic acid was added to them. Finally, the absorbance was measured at 570 nm using a microplate reader.
# S. aureus isolates [2] = assay: microbe, parasite or virus in culture
# Protocol: as §1
# S. aureus strains = test system: S. aureus strains
# Protocol: To investigate the inhibitory effect of KLK and mKLK peptides on bacterial surface attachment and biofilm formation, the bacterial suspension in TSB with a concentration of 10^7 CFU/ml was prepared from overnight culture. An aliquot of 100 μl of the bacterial suspension was added to wells of 96-well plates containing 100 μl of the peptides solution with concentrations of 1×, 1/2× and 1/4× MIC, resulting in the final peptides concentrations of 1/2×, 1/4× and 1/8× MIC. To investigate the inhibitory effect of the peptides on surface attachment the incubation was performed at 37 °C for 2 h and to evaluate their inhibitory activity on biofilm formation the incubation was performed at 37 °C for 24 h. The wells containing only TSB medium were used as negative controls. After incubation, the contents of the wells were removed and washed three times with PBS and the wells were stained with 200 μl of 0.1% crystal violet for 20 min. The plates were washed again and excess dye was removed. A volume of 200 μl of 95% ethanol was added to each well for 20 min and absorbance was measured at 570 nm by a microplate reader.
smiles,measurement,setting,value
CC(C)C[C@@H](NC(=O)[C@H](N)CCCCN)C(=O)N[C@H](CCCCN)C(=O)N[C@H](CC(C)C)C(=O)N[C@H](CC(C)C)C(=O)N[C@H](CC(C)C)C(=O)N[C@H](CC(C)C)C(=O)N[C@H](CC(C)C)C(=O)N[C@H](CCCCN)C(=O)N[C@H](CC(C)C)C(=O)N[C@H](CCCCN)C(N)=O [KLK] (H-[dK][dL][dK][dL][dL][dL][dL][dL][dK][dL][dK]-NH2; N-terminus assumed),MBC,S. aureus isolates [1]; ATCC25923,4 µg/mL
same,MBC,S. aureus isolates [1]; MRSA-1,8 µg/mL
same,MBC,S. aureus isolates [1]; MRSA-2,8 µg/mL
same,MBC,S. aureus isolates [1]; MRSA-3,8 µg/mL
same,MBC,S. aureus isolates [1]; MSSA-1,4 µg/mL
same,MBC,S. aureus isolates [1]; MSSA-2,4 µg/mL
same,"crystal violet absorbance at 570 nm, dispersal activity, Mean±SD","24-h S. aureus biofilms; ATCC25923, 1MIC, control 2.79±0.03",2.451±0.007
same,"crystal violet absorbance at 570 nm, dispersal activity, Mean±SD","24-h S. aureus biofilms; ATCC25923, 2MIC, control 2.79±0.03",2.322±0.02
same,"crystal violet absorbance at 570 nm, dispersal activity, Mean±SD","24-h S. aureus biofilms; ATCC25923, 4MIC, control 2.79±0.03",2.017±0.01
same,"crystal violet absorbance at 570 nm, dispersal activity, Mean±SD","24-h S. aureus biofilms; MRSA-1, 1MIC, control 1.903±0.003",1.695±0.05
same,"crystal violet absorbance at 570 nm, dispersal activity, Mean±SD","24-h S. aureus biofilms; MRSA-1, 2MIC, control 1.903±0.003",1.649±0.06
same,"crystal violet absorbance at 570 nm, dispersal activity, Mean±SD","24-h S. aureus biofilms; MRSA-1, 4MIC, control 1.903±0.003",1.426±0.01
same,"crystal violet absorbance at 570 nm, dispersal activity, Mean±SD","24-h S. aureus biofilms; MRSA-2, 1MIC, control 2.014±0.01",1.804±0.006
same,"crystal violet absorbance at 570 nm, dispersal activity, Mean±SD","24-h S. aureus biofilms; MRSA-2, 2MIC, control 2.014±0.01",1.71±0.01
same,"crystal violet absorbance at 570 nm, dispersal activity, Mean±SD","24-h S. aureus biofilms; MRSA-2, 4MIC, control 2.014±0.01",1.643±0.01
same,"crystal violet absorbance at 570 nm, dispersal activity, Mean±SD","24-h S. aureus biofilms; MRSA-3, 2MIC, control 1.255±0.29",1.1±0.09
same,"crystal violet absorbance at 570 nm, dispersal activity, Mean±SD","24-h S. aureus biofilms; MRSA-3, 4MIC, control 1.255±0.29",0.996±0.04
same,"crystal violet absorbance at 570 nm, dispersal activity, Mean±SD","24-h S. aureus biofilms; MSSA-1, 1MIC, control 1.787±0.1",1.589±0.01
same,"crystal violet absorbance at 570 nm, dispersal activity, Mean±SD","24-h S. aureus biofilms; MSSA-1, 2MIC, control 1.787±0.1",1.483±0.01
same,"crystal violet absorbance at 570 nm, dispersal activity, Mean±SD","24-h S. aureus biofilms; MSSA-1, 4MIC, control 1.787±0.1",1.348±0.01
same,"crystal violet absorbance at 570 nm, dispersal activity, Mean±SD","24-h S. aureus biofilms; MSSA-2, 1MIC, control 2.116±0.006",1.858±0.12
same,"crystal violet absorbance at 570 nm, dispersal activity, Mean±SD","24-h S. aureus biofilms; MSSA-2, 2MIC, control 2.116±0.006",1.713±0.06
same,"crystal violet absorbance at 570 nm, dispersal activity, Mean±SD","24-h S. aureus biofilms; MSSA-2, 4MIC, control 2.116±0.006",1.52±0.001
same,MIC,S. aureus isolates [2]; ATCC25923,4 µg/mL
same,MIC,S. aureus isolates [2]; MRSA-1,8 µg/mL
same,MIC,S. aureus isolates [2]; MRSA-2,8 µg/mL
same,MIC,S. aureus isolates [2]; MRSA-3,8 µg/mL
same,MIC,S. aureus isolates [2]; MSSA-1,4 µg/mL
same,MIC,S. aureus isolates [2]; MSSA-2,4 µg/mL
same,MIC,S. aureus isolates [2]; three MRSA isolates,8 µg/mL
same,MIC,S. aureus isolates [2]; two MSSA isolates,4 µg/mL
same,"crystal violet absorbance at 570 nm, biofilm formation, Mean±SD","S. aureus strains; ATCC25923, 1/2MIC, control 2.302±0.006",1.654±0.006
same,"crystal violet absorbance at 570 nm, biofilm formation, Mean±SD","S. aureus strains; ATCC25923, 1/4MIC, control 2.302±0.006",2.069±0.04
same,"crystal violet absorbance at 570 nm, biofilm formation, Mean±SD","S. aureus strains; ATCC25923, 1/8MIC, control 2.302±0.006",2.113±0.01
same,"crystal violet absorbance at 570 nm, biofilm formation, Mean±SD","S. aureus strains; MRSA-1, 1/2MIC, control 2.115±0.01",1.606±0.01
same,"crystal violet absorbance at 570 nm, biofilm formation, Mean±SD","S. aureus strains; MRSA-1, 1/4MIC, control 2.115±0.01",1.924±0.004
same,"crystal violet absorbance at 570 nm, biofilm formation, Mean±SD","S. aureus strains; MRSA-1, 1/8MIC, control 2.115±0.01",1.947±0.05
same,"crystal violet absorbance at 570 nm, biofilm formation, Mean±SD","S. aureus strains; MRSA-2, 1/2MIC, control 2.354±0.04",1.861±0.007
same,"crystal violet absorbance at 570 nm, biofilm formation, Mean±SD","S. aureus strains; MRSA-2, 1/4MIC, control 2.354±0.04",2.128±0.01
same,"crystal violet absorbance at 570 nm, biofilm formation, Mean±SD","S. aureus strains; MRSA-2, 1/8MIC, control 2.354±0.04",2.187±0.002
